Results published in US4812462A, “4,5,6,7-tetrahydro-1H-imidazo[4,5-c]pyridine-6-carboxylic acid analogs having antihypertensive activity” (Warner-Lambert Company, priority 1986, dated 1989).
Counter-ions that a name gives are not always drawn.

Columns and labels:
[1] = tested on: spontaneously hypertensive rat (SHR); experiment: blood pressure lowering in conscious spontaneously hypertensive rats (SHR), AHP3; assay type: in vivo; conditions: 30 mg/kg PO, read-out: Max % decrease in blood pressure, 30 mg/kg PO in SHR
Procedure: (§1) Thus, for example, compounds of formula I when administered intraperitoneally or orally to 2 kidney, 1-clip Goldblatt (renal) hypertensive rats (See S Sen, et al., "Role of Renin-Angiotensin System in Chronic Renal Hypertensive Rats," Hypertension 1:427-434 (1979) and Clin. Soc. 57:53-62, 1979, "Antihypertensive Effect of Prolonged Blockade of Angiotensin Formation in Benign and Malignant, one-and two-kidney Goldblatt Hypertensive Rats".) at doses in the range of 1-100 mg/kg cause 10-80 mmHg drops in blood pressure. […] Angiotensin binding inhibition activity and blood pressure lowering activity in renal hypertensive rats of the optimally substituted examples of formula I are listed in Table 1. Blood pressure lowering activity in spontaneously hypertensive rats of optimally substituted examples of formula II are listed in Table 2.
(§2) […] EVALUATION (AHP3)
(§3) A Method for the Direct Monitoring of Aortic Blood Pressure and Heart Rate from Conscious Rats
(§4) The continuous monitoring of pulsatile blood pressure (BP) from unrestrained conscious rats surgically equipped with polyethylene cannulas was accomplished by means of a computer assisted data capture scheme (CADCS). The basic elements of the methodology are the cannulation procedure and the CADCS.
(§5) Rats were anesthetized with Telazol (1:1 tiletamine HCl and zolazepam HCl); 20-40 mg/kg IM and the descending aorta exposed via a midline incision. Cannulas fabricated from polyethylene tubing were inserted into the aorta via an undersized puncture hole below the renal arteries. The puncture hole was made by a 23 G disposable needle with a section of the aorta clamped off above and below the puncture site. The cannulas, consisting of a PE100 (0.86 mm ID) body and a PE50 (0.58 mm ID) tip, were attached to a trocar, inserted through the psoas muscle, and passed subcutaneously along the midline of the back and externalized between the ears. The cannulas were anchored to the psoas muscle and between the scalulae (3-0 green braided suture). The midline incision was closed in two steps (muscle first, skin second) using continuous over-and-over sutures (4-0 chronic). Each rat was then given penicillin 30,000 units subcutaneously (Penicillin G Procaine Sterile Suspension).
(§6) The rats were fitted with a harness-springswivel assembly designed to protect the cannula and to provide the rat relative freedom of movement. The harnesses were fabricated from nylon hook and loop tape cemented to a metal plate to which spring wires (18-8 stainless steel), were attached to brass swivels. Each polyethylene cannula was channeled through a spring and connected through a swivel to a pressure transducer (Model P23Gb; Statham Instruments; Hato Rey, Puerto Rico) and an infusion pump (Sage model 234-7; Orion Research, Cambridge, Mass.) by means of PE100 tubing. While on test, each rat received a continuous slow infusion of heparinized saline solution (approximately 0.40 ml or 40 units of heparin per 24 hr period) to prevent clot formation. Additional "flushes" of the cannula with heparinized saline were carried out when the aortic pulse pressure (systolic minus diastolic) was less than 25 mm Hg.
(§7) The pulsatile blood pressure of each of 32 rats was monitored continuously by two signal conditioning units (Gould, Clev., Ohio). The signals from these units were monitored and digital data for mean, systolic, and diastolic blood pressures as well as for heart rate were calculated every 5 min by two in-laboratory computers (Hewlett Packard, Cupertino, Calif.). These in-laboratory computers have the capacity to store 32 days of this 5 min data. Communication with the mainframe research computer (IBM 3083) from the two inlaboratory computers allowed for data analysis and report generation. […]

[2] = tested on: 2 kidney, 1-clip Goldblatt hypertensive rat (RHR); experiment: blood pressure lowering in conscious 2 kidney, 1-clip Goldblatt (renal) hypertensive rats (RHR), AHP3; assay type: in vivo; conditions: 30 mg/kg ip, read-out: Max % decrease in blood pressure, 30 mg/kg ip in RHR
Procedure: as §1, §2, §3, §4, §5, §6, §7

[3] = target: angiotensin II binding to rat adrenal receptor preparations; experiment: inhibition of 125I-angiotensin II binding to rat adrenal receptor preparations

| SMILES | change in vivo at 30 mg/kg [1] [%] | change in vivo at 30 mg/kg [2] [%] | IC50 [3] [µM] |
| --- | --- | --- | --- |
| COc1ccc(N2C(=O)C3Cc4c(ncn4Cc4ccc([N+](=O)[O-])c(C)c4)CN3C2=O)cc1 (stereo not drawn) [Example 273, 1H-Diimidazo[1,5-c:4',5'-d]pyridine-6,8(4H,7H)-dione, 8a,9-dihydro-7-(4-methoxyphenyl)-1-[(3-methyl-4nitrophenyl)methyl], monohydrochloride] | -14 | – | – |
| O=C(O)C1Cc2c(ncn2Cc2ccc(C(F)(F)F)cc2)CN1C(=O)C(c1ccccc1)c1ccccc1 (stereo not drawn) [Example 21, 1-(4-Trifluoromethylphenyl)methyl-5-diphenylacetyl-4,5,6,7 tetrahydro-1H-imidazo[4,5-c]pyridine-6-carboxylic acid] | – | -18 | 0.19 |
| O=C(O)C1Cc2c(ncn2CCc2ccccc2)CN1C(=O)Cc1ccccc1 (stereo not drawn) [Example 6, 1-(2-Phenylethyl)-5-phenylacetyl-4,5,6,7-tetrahydro-1H-imidazo[4,5-c]pyridine-6-carboxylic acid] | – | -16 | 2.4 |
| Cc1cc(Cn2cnc3c2CC(C(=O)O)N(C(=O)C(c2ccccc2)c2ccccc2)C3)ccc1N (stereo not drawn) [Example 13, 1-(4-Amino-3-methylphenyl)methyl-5-diphenylacetyl-4,5,6,7-tetrahydro-1H-imidazo[4,5-c]pyridine-6-carboxylic acid] | – | -22 | – |
| CC(C)N1C(=O)C2Cc3c(ncn3Cc3ccccc3)CN2C1=O (stereo not drawn) [Example 130, 8a,9-Dihydro-7-(1-methylethyl)-1-(phenylmethyl)-1H-diimidazo[1,5-a:4',5'-d]pyridine-6,8(4H,7H)-dione hydrobromide] | -21 | – | – |
| COc1ccc(N2C(=O)C3Cc4[nH]cnc4CN3C2=S)cc1 (stereo not drawn) [Example 159, 1,4,6,7,8a,9-Hexahydro-7-(4-methoxyphenyl)-6-thioxo-8H-diimidazo[1,5-a:4',5'-d]pyridine-8-one] | -39 | – | – |
| COc1ccc(Cn2cnc3c2C[C@@H](C(=O)O)N(C(=O)C(c2ccc(C)cc2)c2ccc(C)cc2)C3)cc1C [Example 25, (S)-[bis(4-methylphenyl)acetyl]-4,5,6,7-tetrahydro-1-[(4-methoxy-3-methylphenyl)methyl]-1H-imidazo[4,5-c]-pyridine-6-carboxylic acid] | – | -12 | – |
| O=C(O)C1Cc2c(ncn2Cc2ccccc2O)CN1C(=O)C(c1ccccc1)c1ccccc1 (stereo not drawn) [Example 17, 1-(2-Hydroxyphenyl)methyl-5-diphenylacetyl-4,5,6,7-tetrahydro-1H-imidazo[4,5-c]pyridine-6-carboxylic acid] | – | -21 | 0.69 |
| O=C(O)[C@@H]1Cc2c(ncn2Cc2ccccc2)CN1C(=O)C(c1ccc(F)cc1)c1ccc(F)cc1 [Example 23, (S)-5-[bis(4-fluorophenyl)acetyl]-4,5,6,7-tetrahydro-1-(phenylmethyl)-1H-imidazo[4,5-c]pyridine-6-carboxylic acid] | – | -22 | 2.1 |
| COc1ccc(N2C(=O)C3Cc4c(ncn4Cc4ccccc4)CN3C2=S)cc1 (stereo not drawn) [Example 128, 6,7,8a,9-Tetrahydro-7-(4-methoxyphenyl)-1-(phenylmethyl)-6-thioxo-1H-diimidazo[1,5-a:4',5'-d]pyridine-8(4H)-one] | -32 | – | – |
| COc1ccc(N2C(=O)C3Cc4c(ncn4Cc4ccccc4)CN3C2=O)cc1 (stereo not drawn) [Example 133, 1H-Diimidazo[1,5-a:4',5'-d]pyridine-6,8(4H,7H)-dione, 8a,9-dihydro-7-(4-methoxyphenyl)-1-(phenylmethyl)-, monohydrochloride] | -29 | – | – |
| O=C1C2Cc3[nH]cnc3CN2C(=S)N1c1ccccc1 (stereo not drawn) [Example 161, 1,4,6,7,8a,9-Hexahydro-7-phenyl-6-thioxo-8H-diimidazo[1,5-a:4',5'-d]pyridine-8-one] | -28 | – | – |
| COc1ccc(Cn2cnc3c2C[C@@H](C(=O)O)N(C(=O)CC2CCCCC2)C3)cc1C [Example 26, (S)-5-(cyclohexylacetyl)-4,5,6,7-tetrahydro-1-[(4-methoxy-3-methylphenyl)methyl]-1H-imidazo-[4,5-c]-pyridine-6-carboxylic acid] | – | -18 | 2 |
| CC(C)N1C(=O)C2Cc3[nH]cnc3CN2C1=S (stereo not drawn) [Example 162, 1,4,6,7,8a,9-Hexahydro-7-(1-methylethyl)-6-thioxo-8H-diimidazo-(1,5-a:4',5'-d]pyridine-8-one] | -39 | – | – |
| O=C(O)C1Cc2c(ncn2Cc2ccccc2)CN1C(=O)C(c1ccccc1)c1ccccc1 (stereo not drawn) [Example 169, 5-(Diphenylacetyl)-4,5,6,7-tetrahydro-1-(phenylmethyl)-1H-imidazo[4,5-c]pyridine-6-carboxylic acid] | – | -20 | 1 |
| COc1ccc(N2C(=O)C3Cc4[nH]cnc4CN3C2=O)c(OC)c1 (stereo not drawn) [Example 157, 7-(2,4-Dimethoxyphenyl)-8a,9-dihydro-1H-diimidazo[1,5-a:4',5'-d]pyridine-6,8(4H,7H)-dione] | -22 | – | – |
| CC(C)N1C(=O)[C@@H]2Cc3ncn(C)c3CN2C1=O [Example 129, (S)-8a,9-dihydro-3-methyl-7-(1-methylethyl)-3H-diimidazo-[1,5-a:4',5'-d]pyridine-6,8(4H,7H)-dione] | -36 | – | – |
| CC(C)N1C(=O)C2Cc3nc[nH]c3CN2C1=O (stereo not drawn) [Example 154, 8a,9-Dihydro-7-(1-methylethyl)-3H-diimidazo[1,5-a:4',5'-d]-pyridine-6,8(4H,7H)-dione] | -39 | – | – |
| CN(C)c1ccc(N2C(=O)C3Cc4[nH]cnc4CN3C2=S)cc1 (stereo not drawn) [Example 160, 7-[4-(Dimethylamino)phenyl]-1,4,6,7,8a,9-hexahydro-6-thioxo-8H-diimidazo[1,5-a:4',5'-d]pyridine-8-one] | -34 | – | – |
| O=C(O)C1Cc2c(ncn2CCC2CCCCC2)CN1C(=O)C(c1ccccc1)c1ccccc1 (stereo not drawn) [Example 4, 1-(2-Cyclohexylethyl)-5-diphenylacetyl-4,5,6,7-tetrahydro-1H-imidazo[4,5-c]pyridine-6-carboxylic acid] | – | -13 | 0.24 |
| Cc1cccc(Cn2cnc3c2C[C@@H](C(=O)O)N(C(=O)C(c2ccccc2)c2ccccc2)C3)c1 [Example 75, 1H-Imidazo[4,5-c]pyridine-6-carboxylic acid, 5-(diphenylacetyl)-4,5,6,7-tetrahydro-1-[(3-methylphenyl)methyl]-, (S)-] | – | -30 | 0.27 |
| COc1ccc(N2C(=O)C3Cc4c(ncn4Cc4ccc(OC)c(C)c4)CN3C2=S)cc1 (stereo not drawn) [Example 127, 6,7,8a,9-Tetrahydro-1-[(4-methoxy-3-methylphenyl)-methyl]-7-(4-methoxyphenyl)-6-thioxo-1H-diimidazo-[1,5-a:4',5'-d]-pyridine-8(4H)-one] | -24 | – | – |
| COc1ccc(N2C(=O)C3Cc4[nH]cnc4CN3C2=O)cc1 (stereo not drawn) [Example 155, 8a,9-Dihydro-7-(4-methoxyphenyl)-1H-diimidazo[1,5-a:4',5'-d]pyridine-6,8(4H,7H)-dione] | -39 | – | – |
| CC(C)(C)N1C(=O)C2Cc3[nH]cnc3CN2C1=O (stereo not drawn) [Example 156, 7-(1,1-Dimethylethyl)-8a,9-dihydro-1H-diimidazo[1,5-a:4',5'-d]pyridine-6,8(4H,7H)-dione] | -18 | – | – |
| O=C(O)C1Cc2c(ncn2Cc2ccccc2)CN1C(=O)C1c2ccccc2-c2ccccc21 (single isomer, unassigned) [Example 29, 1H-Imidazo[4,5-c]pyridine-6-carboxylic acid, 5-[(9H-fluoren-9-yl)carbonyl]-4,5,6,7-tetrahydro-1-(phenylmethyl)-, (+)-] | – | – | 8 |
